Laboratory results: ChEMBL document CHEMBL1150645, “A new secosterol from the Indonesian octocoral Pachyclavularia violacea” (J Nat Prod, 2002)

Assays:
Format in all cases: functional, cell-based
SK-MEL-28 = experiment: Cytotoxicity against human SK-MEL-28 cells
P388 = experiment: Cytotoxicity against mouse P388 cells
HT-29 = experiment: Cytotoxicity against human HT-29 cells
A549 = experiment: Cytotoxicity against human A549 cells

Measured: IC50

CC(=O)O[C@@H]1C/C=C(/C)C[C@H]2O[C@H]3[C@@H]4[C@H]2C(C)=CC(=O)[C@@H]4[C@@H](C)CO[C@@]13C [PACHYCLAVULARIAENONE B]
> 1 µg/mL: all assays above

CC(C)[C@@H](C)CC[C@@H](C)[C@H]1CC[C@@H]([C@@H]2C[C@H]3O[C@]34C[C@@H](O)CC[C@]4(C)C2=O)[C@]1(C)CCO [SECOSTEROL]
> 1 µg/mL: all assays above
